Assay results published in patent US20190110971A1, “COMPOSITIONS FOR MANAGING PLAQUE FORMATION” (THE REGENTS OF THE UNIVERSITY OF CALIFORNIA, priority 2016, published 2019).

Test system: bracket-induced plaque formation (saliva-derived plaques on HA discs with brackets)
Assay: in vitro bracket-induced biofilm model system, crystal violet assay
Assay type: cell-based
Conditions: in vitro grown plaques from pooled human saliva, FIG. 5B/5C
Text: These discs were then fitted into 12-well tissue culture plates for the growth of saliva-derived plaques. One unique feature of this system is use of a new culture medium developed by this laboratory (Shi-medium, Tian Y 2010) which allows the biofilm grown in vitro to be very similar to in vivo human plaque.
A mixed pool of human saliva samples was collected from 10 volunteers to develop in vitro grown plaques on the model system developed above. Amino acids and sugar monomers and analogs were selected mostly from the list of FDA Generally Recognized As Safe (GRAS) compounds (http://www.fda.gov/Food/Ingredients PackagingLabeling/GRAS/SCOGS/ default.htm). The anti-biofilm inhibitory function of these chemicals was assayed with a crystal violet assay (Sharma A 2005), as illustrated in FIG. 5A. The compounds with more than 10× inhibitory effects were further investigated.

Row | SMILES | inhibitory effects against bracket-induced plaque formation
1 | C[C@@H](N)C(=O)O [D-Ala, D-alanine] | strong inhibitory effects
2 | N=C(N)NCCC[C@H](N)C(=O)O [L-Arg, L-arginine] | strong inhibitory effects
3 | NCCCC[C@@H](N)C(=O)O [D-Lys, D-lysine] | strong inhibitory effects
4 | CC(=O)N[C@H]1C(O)O[C@H](CO)[C@@H](O)[C@@H]1O (stereo partly drawn) [N-acyl-Glucosamine, N-acetylglucosamine] | strong inhibitory effects
5 | C[C@H](O)[C@@H](N)C(=O)O [D-Thr, D-threonine] | strong inhibitory effects
6 | NCCCC[C@H](N)C(=O)O [L-Lys, L-lysine] | strong inhibitory effects
